Results: ChEMBL document CHEMBL6103581, “Identification of Thieno[3,2-d]pyrimidine derivatives as potent and selective Janus Kinase 1 inhibitors” (Eur J Med Chem, 2025)

Assays:
BaF3 = assay: Antiproliferative activity against mouse parental BaF3 cells assessed as cell growth inhibition incubated for 72 hrs by Cell-TiterGlo assay; assay type: functional
[1] = Antiproliferative activity against mouse Ba/F3-TEL-JAK1 cells assessed as cell growth inhibition incubated for 72 hrs by Cell-TiterGlo assay; assay type: functional
NCI-H1975 = assay: Antiproliferative activity against human NCI-H1975 cells assessed as cell growth inhibition incubated for 72 hrs by Cell-TiterGlo assay; assay type: functional
NCI-H2087 = assay: Antiproliferative activity against human NCI-H2087 cells assessed as cell growth inhibition incubated for 72 hrs by Cell-TiterGlo assay; assay type: functional
[2] = target: Tyrosine-protein kinase JAK2 (Homo sapiens, UniProt O60674); assay: Inhibition of N-terminal GST-tagged human recombinant JAK2 (804 to end residues) extracted from baculovirus infected in Sf9 cells using IGF1Rtide as substrate preincubated for 15 min followed by substrate addition and measured after 1 hr by ADP-Glo kinase assay
[3] = target: T1, Tyrosine-protein kinase JAK3 (Homo sapiens, UniProt P52333); assay: Inhibition of N-terminal GST-tagged human recombinant JAK3 (781 to end residues) extracted from baculovirus infected in Sf9 cells using Poly(4:1 Glu, Tyr) as substrate preincubated for 15 min followed by substrate addition and measured after 1 hr by ADP-Glo kinase assay
T1 sequence (P52333 whole entry): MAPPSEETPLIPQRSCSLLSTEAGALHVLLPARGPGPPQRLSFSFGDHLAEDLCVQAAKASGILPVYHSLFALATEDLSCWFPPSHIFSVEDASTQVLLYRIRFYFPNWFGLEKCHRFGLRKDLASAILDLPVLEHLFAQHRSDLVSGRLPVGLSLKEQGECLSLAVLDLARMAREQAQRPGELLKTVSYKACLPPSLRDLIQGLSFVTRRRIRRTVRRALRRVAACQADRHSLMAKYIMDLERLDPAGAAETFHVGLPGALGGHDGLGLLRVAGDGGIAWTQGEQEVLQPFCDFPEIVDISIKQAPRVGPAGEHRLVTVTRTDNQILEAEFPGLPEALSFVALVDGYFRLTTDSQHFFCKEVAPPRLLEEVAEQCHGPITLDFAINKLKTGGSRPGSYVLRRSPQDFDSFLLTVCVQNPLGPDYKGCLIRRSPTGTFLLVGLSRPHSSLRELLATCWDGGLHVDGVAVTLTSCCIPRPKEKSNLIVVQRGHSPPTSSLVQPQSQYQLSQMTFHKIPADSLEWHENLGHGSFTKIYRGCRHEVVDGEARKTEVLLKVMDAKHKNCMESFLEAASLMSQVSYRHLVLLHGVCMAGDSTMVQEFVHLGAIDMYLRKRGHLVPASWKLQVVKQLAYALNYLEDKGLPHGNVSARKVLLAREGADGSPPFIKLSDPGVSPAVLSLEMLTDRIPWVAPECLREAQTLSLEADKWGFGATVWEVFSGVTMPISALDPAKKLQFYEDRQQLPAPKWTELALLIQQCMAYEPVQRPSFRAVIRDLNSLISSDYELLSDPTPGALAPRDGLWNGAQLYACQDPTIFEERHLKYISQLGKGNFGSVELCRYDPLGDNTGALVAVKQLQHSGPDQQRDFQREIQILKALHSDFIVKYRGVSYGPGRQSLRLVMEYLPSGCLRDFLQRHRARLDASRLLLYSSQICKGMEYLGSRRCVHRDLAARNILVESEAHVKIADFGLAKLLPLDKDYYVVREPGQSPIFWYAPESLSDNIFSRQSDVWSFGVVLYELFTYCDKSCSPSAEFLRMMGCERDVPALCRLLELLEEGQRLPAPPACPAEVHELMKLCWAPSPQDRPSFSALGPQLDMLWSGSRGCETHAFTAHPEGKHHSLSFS

Sequence of Tyrosine-protein kinase JAK2 (O60674 whole entry): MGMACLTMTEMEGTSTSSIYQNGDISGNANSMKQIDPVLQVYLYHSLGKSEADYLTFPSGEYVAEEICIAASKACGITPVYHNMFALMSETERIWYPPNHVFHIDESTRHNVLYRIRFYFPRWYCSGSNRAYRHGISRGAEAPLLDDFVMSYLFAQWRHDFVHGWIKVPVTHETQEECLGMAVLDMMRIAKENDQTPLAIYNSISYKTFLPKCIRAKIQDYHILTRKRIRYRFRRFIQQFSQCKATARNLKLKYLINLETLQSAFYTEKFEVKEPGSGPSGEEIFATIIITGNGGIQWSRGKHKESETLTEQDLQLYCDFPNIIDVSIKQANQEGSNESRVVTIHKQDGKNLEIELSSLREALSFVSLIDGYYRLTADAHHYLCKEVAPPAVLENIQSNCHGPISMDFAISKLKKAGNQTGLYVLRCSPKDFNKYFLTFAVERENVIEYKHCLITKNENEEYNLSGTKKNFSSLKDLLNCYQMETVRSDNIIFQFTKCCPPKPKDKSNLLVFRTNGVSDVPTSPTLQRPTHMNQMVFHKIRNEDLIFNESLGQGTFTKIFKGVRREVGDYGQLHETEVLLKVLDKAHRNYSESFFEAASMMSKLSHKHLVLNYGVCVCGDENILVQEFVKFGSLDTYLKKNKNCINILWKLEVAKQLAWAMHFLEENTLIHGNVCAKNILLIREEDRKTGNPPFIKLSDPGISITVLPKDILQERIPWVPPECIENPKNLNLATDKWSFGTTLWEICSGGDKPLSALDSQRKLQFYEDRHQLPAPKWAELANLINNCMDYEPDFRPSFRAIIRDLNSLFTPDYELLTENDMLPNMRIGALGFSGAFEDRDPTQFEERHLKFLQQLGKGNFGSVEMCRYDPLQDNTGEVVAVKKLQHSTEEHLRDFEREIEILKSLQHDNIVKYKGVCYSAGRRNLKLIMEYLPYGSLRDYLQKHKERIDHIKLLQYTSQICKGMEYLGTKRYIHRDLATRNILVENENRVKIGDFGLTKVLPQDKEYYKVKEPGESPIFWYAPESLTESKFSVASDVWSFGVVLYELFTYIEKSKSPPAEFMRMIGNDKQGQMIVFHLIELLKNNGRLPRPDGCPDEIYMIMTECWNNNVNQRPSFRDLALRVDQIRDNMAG

| SMILES | GI50 (BaF3) | GI50 [1] | GI50 (NCI-H1975) | GI50 (NCI-H2087) | IC50 [2] | IC50 [3] |
| --- | --- | --- | --- | --- | --- | --- |
| COc1nn(C)cc1Nc1ncc2scc(-c3cccc(NS(C)(=O)=O)c3)c2n1 | 0.781 µM | 0.659 µM | 4.53 µM | 8.22 µM |  |  |
| C[C@H](C(=O)Nc1cccc(-c2csc3cnc(Nc4cccc(S(C)(=O)=O)c4F)nc23)c1)N1CCN(C)CC1 | 0.677 µM | 0.641 µM | 12.6 µM | 6.28 µM |  |  |
| COc1nn(C)cc1Nc1ncc2scc(-c3cccc(NC(=O)[C@@H](C)N4CCN(C5COC5)CC4)c3)c2n1 | 6.07 µM | 6.78 µM | > 50 µM | 16.4 µM |  |  |
| COc1nn(C)cc1Nc1ncc2scc(-c3cccc(NC(=O)[C@@H](C)N4CCN(C(C)=O)CC4)c3)c2n1 | 1.69 µM | 1.89 µM | 23.6 µM | 21.1 µM |  |  |
| COc1nn(C)cc1Nc1ncc2scc(-c3cccc(NC(=O)[C@@H](C)N4CCN(C(=O)CC#N)CC4)c3)c2n1 | 3.98 µM | 2.44 µM | 40.3 µM | 23.3 µM |  |  |
| C=CC(=O)N1CCN([C@H](C)C(=O)Nc2cccc(-c3csc4cnc(Nc5cn(C)nc5OC)nc34)c2)CC1 | 1.62 µM | 1.7 µM | 13.5 µM | 10.5 µM |  |  |
| COc1ncccc1Nc1ncc2scc(-c3cccc(NC(=O)[C@@H](C)N4CCN(C)CC4)c3)c2n1 | 2.59 µM | 1.77 µM | 10.5 µM | 3.27 µM |  |  |
| Cc1ccc(Nc2ncc3scc(-c4cccc(NC(=O)[C@@H](C)N5CCN(C)CC5)c4)c3n2)cn1 | 2.52 µM | 0.994 µM | 9.18 µM | 2.67 µM |  |  |
| COc1nn(CCO)cc1Nc1ncc2scc(-c3cccc(NC(=O)[C@@H](C)N4CCN(C)CC4)c3)c2n1 | 1.04 µM | 0.809 µM | 10.4 µM | 5.57 µM |  |  |
| C=CC(=O)N1C[C@H](Nc2ncnc3[nH]ccc23)CC[C@@H]1C [RITLECITINIB] | > 50 µM | > 50 µM | > 50 µM | > 50 µM |  |  |
| Cc1ccnc(C)c1Nc1ncc2scc(-c3cccc(NC(=O)[C@@H](C)N4CCN(C)CC4)c3)c2n1 | 17.3 µM | 16.2 µM | 28.9 µM | 7.82 µM |  |  |
| COc1nn(C)cc1Nc1ncc2scc(-c3cccc(NC(=O)[C@H]4CCCN4)c3)c2n1 | 3.31 µM | 0.744 µM | 5.26 µM | 1.51 µM | 1.6 µM | 0.069 µM |
| COc1nn(C)cc1Nc1ncc2scc(-c3cccc(NC(=O)[C@H]4CCCN4S(C)(=O)=O)c3)c2n1 | 6.16 µM | 3.1 µM | 8.98 µM | 9.5 µM |  |  |
| Cc1ccc(Nc2ncc3scc(-c4cccc(NC(=O)[C@@H](C)N5CCN(C)CC5)c4)c3n2)c(C)n1 | 7.83 µM | 5.45 µM | 27.2 µM | 6.49 µM |  |  |
| COc1n[nH]cc1Nc1ncc2scc(-c3cccc(NC(=O)[C@@H](C)N4CCN(C)CC4)c3)c2n1 | 1.24 µM | 0.62 µM | 16.5 µM | 8.62 µM |  |  |
| COc1nn(C)cc1Nc1ncc2scc(-c3cccc(NC(=O)[C@@H](C)N4CCN(S(C)(=O)=O)CC4)c3)c2n1 | 3.77 µM | 2.45 µM | 20.2 µM | 22.2 µM |  |  |

| SMILES | GI50 (BaF3) | GI50 [1] | GI50 (NCI-H1975) | GI50 (NCI-H2087) | IC50 [2] | IC50 [3] |
| --- | --- | --- | --- | --- | --- | --- |
| COc1nn(C)cc1Nc1ncc2scc(-c3cccc(NC(=O)[C@@H](C)N4CCN(C(=O)C(F)(F)F)CC4)c3)c2n1 | 1.04 µM | 0.351 µM | 7.36 µM | 3.48 µM |  |  |
| COc1nn(C)cc1Nc1ncc2scc(-c3cccc(NC(=O)[C@H]4CCCN4C4CCOCC4)c3)c2n1 | 6.37 µM | 2.79 µM | 21 µM | 9.31 µM |  |  |
| COc1nn(C)cc1Nc1ncc2scc(-c3cccc(NC(=O)[C@H]4CCCN4C(C)=O)c3)c2n1 | 4.06 µM | 0.897 µM | 10.2 µM | 13.1 µM | 3.02 µM | 0.248 µM |
| COc1nn(C)cc1Nc1ncc2scc(-c3cccc(NC(=O)[C@@H](C)N4CCN(C(C)C)CC4)c3)c2n1 | 1.05 µM | 0.519 µM | 15.4 µM | 3.61 µM |  |  |
| COc1nn(C)cc1Nc1ncc2scc(-c3cccc(NC(=O)[C@H]4CCCN4C4CCN(C)CC4)c3)c2n1 | 2.25 µM | 1.61 µM | 11 µM | 4.26 µM |  |  |
| Cc1cc(Nc2ncc3scc(-c4cccc(NC(=O)[C@@H](C)N5CCN(C)CC5)c4)c3n2)n(C)n1 | 4.26 µM | 1.6 µM | 7.34 µM | 7.05 µM |  |  |
| C[C@H](C(=O)Nc1cccc(-c2csc3cnc(Nc4cn(C)nc4C(F)(F)F)nc23)c1)N1CCN(C)CC1 | 2.77 µM | 1.93 µM | 7.4 µM | 3.03 µM |  |  |
| COc1nn(C(C)=O)cc1Nc1ncc2scc(-c3cccc(NC(=O)[C@@H](C)N4CCN(C)CC4)c3)c2n1 | 2.27 µM | 2.42 µM | 4.61 µM | 3.28 µM |  |  |
| C[C@@H]1CCN(C(=O)CC#N)C[C@@H]1N(C)c1ncnc2[nH]ccc12 [TOFACITINIB] | 1.81 µM | 0.495 µM | > 50 µM | > 50 µM |  |  |
| COc1nn(C)cc1Nc1ncc2scc(-c3cccc(NC(=O)[C@@H](C)N4CCN(C5CCOCC5)CC4)c3)c2n1 | 1.37 µM | 1.22 µM | 23.4 µM | 8.98 µM |  |  |
| C[C@H](C(=O)Nc1cccc(-c2csc3cnc(Nc4nnn(C)n4)nc23)c1)N1CCN(C)CC1 | 6.09 µM | 7.17 µM | 27.9 µM | 6.47 µM |  |  |
| COc1nn(C)cc1Nc1ncc2scc(-c3cccc(NC(=O)[C@@H]4CCCN4)c3)c2n1 | 3.33 µM | 1.22 µM | 8.86 µM | 3.74 µM |  |  |
| C[C@H](C(=O)Nc1cccc(-c2csc3cnc(Nc4cccnc4O)nc23)c1)N1CCN(C)CC1 | 6.16 µM | 7.31 µM | 18.5 µM | 13.5 µM |  |  |
| Cc1ncccc1Nc1ncc2scc(-c3cccc(NC(=O)[C@@H](C)N4CCN(C)CC4)c3)c2n1 | 2.74 µM | 1.97 µM | 23.1 µM | 6.42 µM |  |  |
| COc1nn(C)cc1Nc1ncc2scc(-c3cccc(NC(=O)[C@@H](C)N4CCNCC4)c3)c2n1 | 0.507 µM | 0.188 µM | 4.26 µM | 1.66 µM |  |  |
